Laboratory results taken from ChEMBL document CHEMBL5608199, “Quaternized antimicrobial peptide mimics based on harmane as potent anti-MRSA agents by multi-target mechanism covering cell wall, cell membrane and intracellular targets” (Eur J Med Chem, 2024).
In brackets after ≈: the same amount, converted by molar mass. Activity calls are given as the source filed them. The calls are words filed in the database; no cut-off is given here.

How the values were obtained:
[1] = test system: Staphylococcus aureus; assay: Antibacterial activity against methicillin-resistant Staphylococcus aureus; assay type: functional
[2] = test system: Erythrocyte; assay: Hemolytic activity at sheep Red blood cells at 0.5 to 128 ug/ml; assay type: toxicity, cell-based, Ovis aries; conditions: dose 0.5-128 µg/ml
[3] = test system: Staphylococcus aureus; assay: Antibacterial activity against methicillin-resistant Staphylococcus aureus ATCC 33591 incubated for 18 hrs by two fold serial broth dilution method; assay type: functional
[4] = test system: Staphylococcus aureus; assay: Antibacterial activity against methicillin-resistant Staphylococcus aureus ATCC 33591 assessed as reduction in metabolic activity by alamar blue assay; assay type: functional, organism-based; conditions: dose 0-4 µg/ml
[5] = test system: Staphylococcus aureus; assay: Antibacterial activity against methicillin-resistant Staphylococcus aureus ATCC 33591 infected in cyclophosphamide treated female KM mouse skin infection model assessed as log reduction in bacterial load in abscess at 13.2 mg/kg administered for 4 days and measured on day 5; assay type: functional; conditions: time 5 day
[6] = test system: Staphylococcus aureus; assay: Antibacterial activity against Staphylococcus aureus CMCC 26003 incubated for 18 hrs by two fold serial broth dilution method; assay type: functional
[7] = test system: Cell membrane; assay: Disruption of membrane integrity in methicillin-resistant Staphylococcus aureus ATCC 33591 assessed as increase in fluorescence intensity by PI staining based fluorescence assay; assay type: cell membranes; conditions: dose 0-4 µg/ml
[8] = test system: Staphylococcus aureus; assay: Antibacterial activity against methicillin-resistant Staphylococcus aureus clinical isolate M-19 incubated for 18 hrs by two fold serial broth dilution method; assay type: functional
[9] = test system: Staphylococcus aureus; assay: Antibacterial activity against methicillin-resistant Staphylococcus aureus ATCC 33591 infected in cyclophosphamide treated female KM mouse skin infection model assessed as log reduction in bacterial load in abscess at 3.3 mg/kg administered for 4 days and measured on day 5; assay type: functional; conditions: time 5 day
[10] = test system: Calf thymus DNA; assay: Binding affinity to calf thymus DNA assessed as reduction in fluorescence intensity at 3 x 10^-5M by fluorescence spectroscopy; assay type: nucleic-acid assay; conditions: Bos taurus; dose 3.0 10^-5M
[11] = Hemolytic activity at sheep Red blood cells at 256 ug/ml; assay type: toxicity, cell-based, Ovis aries, Erythrocyte; conditions: sheep red blood cells (erythrocytes), at 256 µg/mL, read-out: Activity
[12] = test system: Staphylococcus aureus; assay: Induction of ROS generation in methicillin-resistant Staphylococcus aureus ATCC 33591 assessed as fold increase in ROS level at 0.5 ug/ml relative to control; assay type: functional; conditions: dose 0.5 µg/ml
[13] = test system: Staphylococcus aureus; assay: Antibacterial activity against methicillin-resistant Staphylococcus aureus clinical isolate M-20 incubated for 18 hrs by two fold serial broth dilution method; assay type: functional
[14] = Stability in sheep plasma assessed as increase in MIC measured after 0 to 6 hrs; assay type: ADME, cell-free, Ovis aries; conditions: time 0-6 hrs
[15] = test system: Cell membrane; assay: Disruption of membrane integrity in methicillin-resistant Staphylococcus aureus ATCC 33591 assessed as increase in protein leakage; assay type: cell membranes; conditions: dose 0-4 µg/ml
[16] = test system: Staphylococcus aureus; assay: Antibacterial activity against methicillin-resistant Staphylococcus aureus ATCC 33591 assessed as reduction in LDH activity; assay type: functional, organism-based; conditions: dose 0-4 µg/ml
[17] = test system: Staphylococcus aureus; assay: Bacteriostatic activity against methicillin-resistant Staphylococcus aureus ATCC 33591 assessed as log reduction in viable bacterial count at 1 to 4 times MIC measured at 10 hrs by time-kill assay; assay type: functional
[18] = test system: Cell membrane; assay: Induction of membrane depolarization in methicillin-resistant Staphylococcus aureus ATCC 33591 assessed as increase in fluorescence intensity at 1 to 4 times MIC by DiSC3(5) staining based assay; assay type: cell membranes; conditions: time 0-120 min, TDE = time-dependent effect
[19] = test system: Staphylococcus aureus; assay: Antibacterial activity against methicillin-resistant Staphylococcus aureus clinical isolate M-15 incubated for 18 hrs by two fold serial broth dilution method; assay type: functional
[20] = test system: Staphylococcus aureus; assay: Antibacterial activity against methicillin-resistant Staphylococcus aureus ATCC 33591 assessed as neutralization of negative charge in cell wall by measuring increase in surface potential; assay type: functional, organism-based; conditions: dose 0-256 µg/ml
[21] = test system: Staphylococcus aureus; assay: Antibacterial activity against methicillin-resistant Staphylococcus aureus ATCC 33591 assessed as inhibition of bacterial growth at 0.5 ug/ml measured after 8 hrs relative to control; assay type: functional
[22] = test system: Staphylococcus aureus; assay: Antibacterial activity against methicillin-resistant Staphylococcus aureus clinical isolate M-18 incubated for 18 hrs by two fold serial broth dilution method; assay type: functional
[23] = test system: Staphylococcus aureus; assay: Antibacterial activity against methicillin-resistant Staphylococcus aureus CGMCC 1.12409 incubated for 18 hrs by two fold serial broth dilution method; assay type: functional
[24] = test system: Staphylococcus aureus; assay: Antibacterial activity against methicillin-resistant Staphylococcus aureus clinical isolate M-14 incubated for 18 hrs by two fold serial broth dilution method; assay type: functional
[25] = test system: Cell membrane; assay: Disruption of membrane integrity in methicillin-resistant Staphylococcus aureus ATCC 33591 assessed as fold increase in nucleic acid leakage at 1 ug/ml relative to control; assay type: cell membranes; conditions: dose 1.0 µg/ml
[26] = test system: Staphylococcus aureus; assay: Antibacterial activity against methicillin-resistant Staphylococcus aureus ATCC 33591 infected in cyclophosphamide treated female KM mouse skin infection model assessed as reduction in inflammatory cell infiltration at 3.3 to 13.2 mg/kg administered for 4 days and measured on day 5 by H and E staining based analysis; assay type: functional, organism-based; conditions: dose 3.3-13.2 mg/kg, time 5.0 day
[27] = Cytotoxicity against human HTR-8/SVneo cells assessed as cell viability at 8 ug/ml by CCK-8 assay relative to control; assay type: toxicity, cell-based; conditions: at 8 µg/mL, read-out: Activity
[28] = test system: Staphylococcus aureus; assay: Antibacterial activity against methicillin-resistant Staphylococcus aureus ATCC 33591 assessed as inhibition of bacterial growth in presence of 0 to 128 ug/ml peptidoglycan by exogenous addition assay (reference value: 0.5 ug/ml); assay type: functional
[29] = Cytotoxicity against human HTR-8/SVneo cells assessed as cell viability at 0.5 ug/ml by CCK-8 assay relative to control; assay type: toxicity, cell-based; conditions: at 0.5 µg/mL, read-out: Activity
[30] = test system: Staphylococcus aureus; assay: Antibacterial activity against methicillin-resistant Staphylococcus aureus clinical isolate M-17 incubated for 18 hrs by two fold serial broth dilution method; assay type: functional
[31] = test system: Staphylococcus aureus; assay: Induction of ROS generation in methicillin-resistant Staphylococcus aureus ATCC 33591 assessed as increase in ROS level; assay type: functional, organism-based; conditions: dose 0-4 µg/ml
[32] = test system: Staphylococcus aureus; assay: Antibacterial activity against methicillin-resistant Staphylococcus aureus ATCC 33591 infected in cyclophosphamide treated female KM mouse skin infection model assessed as reduction in bacterial load in abscess administered for 4 days and measured on day 5; assay type: functional, organism-based; conditions: dose 3.3-13.2 mg/kg, time 5.0 day
[33] = test system: Staphylococcus aureus; assay: Induction of oxidative damage in methicillin-resistant Staphylococcus aureus ATCC 33591 assessed as loss of GSH activity; assay type: functional, organism-based; conditions: dose 0-4 µg/ml
[34] = test system: Staphylococcus aureus; assay: Antibacterial activity against methicillin-resistant Staphylococcus aureus ATCC 33591 infected in cyclophosphamide treated female KM mouse skin infection model assessed as reduction in number of bacterial clones in skin at 3.3 to 13.2 mg/kg administered for 4 days and measured on day 5; assay type: functional, organism-based; conditions: dose 3.3-13.2 mg/kg, time 5.0 day
[35] = test system: Lipoteichoic acid; assay: Displacement of BODIPY-TR-cadaverine from methicillin-resistant Staphylococcus aureus ATCC 33591 lipoteichoic acid assessed as increase in fluorescence intensity; conditions: dose 0.5-4 µg/ml
[36] = test system: Staphylococcus aureus; assay: Antibacterial activity against methicillin-resistant Staphylococcus aureus ATCC 43300 incubated for 18 hrs by two fold serial broth dilution method; assay type: functional
[37] = test system: Staphylococcus aureus; assay: Induction of morphological changes in methicillin-resistant Staphylococcus aureus ATCC 33591 assessed as appearance of adhesive cell morphology at 1 ug/ml measured after 6 hrs by SEM analysis; assay type: functional, organism-based; conditions: dose 1.0 µg/ml
[38] = test system: Staphylococcus aureus; assay: Antibacterial activity against Staphylococcus aureus ATCC 29213 incubated for 18 hrs by two fold serial broth dilution method; assay type: functional
[39] = test system: Staphylococcus aureus; assay: Antibacterial activity against methicillin-resistant Staphylococcus aureus ATCC 33591 assessed as reduction in LDH activity at 4 ug/ml measured after 8 hrs relative to control; assay type: functional; set-up: scale not given: the % may be the effect or the level left; conditions: dose 4 µg/ml
[40] = test system: Staphylococcus aureus; assay: Induction of oxidative damage in methicillin-resistant Staphylococcus aureus ATCC 33591 assessed as reduction in SOD activity; assay type: functional, organism-based; conditions: dose 0-4 µg/ml
[41] = test system: Escherichia coli; assay: Antibacterial activity against Escherichia coli ATCC 8739 incubated for 18 hrs by two fold serial broth dilution method; assay type: functional
[42] = test system: Staphylococcus aureus; assay: Induction of morphological changes in methicillin-resistant Staphylococcus aureus ATCC 33591 assessed as appearance of irregular cell morphology at 1 ug/ml measured after 6 hrs by SEM analysis; assay type: functional, organism-based; conditions: dose 1.0 µg/ml
[43] = test system: Calf thymus DNA; assay: Binding affinity to calf thymus DNA assessed as increase in absorption wavelength intensity at 0 to 2.4 x 10^-5M by absorption spectroscopy; assay type: nucleic-acid assay; conditions: Bos taurus; dose 0-2.4 10^-5M
[44] = test system: Cell membrane; assay: Disruption of membrane integrity in methicillin-resistant Staphylococcus aureus ATCC 33591 assessed as appearance of blue and green fluorescence at 1 ug/ml by DAPI/SYTOX Green double staining assay; assay type: cell membranes; conditions: dose 1.0 µg/ml
[45] = test system: Cell membrane; assay: Induction of membrane depolarization in methicillin-resistant Staphylococcus aureus ATCC 33591 assessed as increase in fluorescence intensity at 1 to 4 times MIC measured after 0 to 120 mins by DiSC3(5) staining based assay; assay type: cell membranes; conditions: time 0-120 min
[46] = test system: Cell membrane; assay: Disruption of membrane integrity in methicillin-resistant Staphylococcus aureus ATCC 33591 assessed as increase in nucleic acid leakage; assay type: cell membranes; conditions: dose 0-4 µg/ml
[47] = test system: Staphylococcus aureus; assay: Antibacterial activity against methicillin-resistant Staphylococcus aureus clinical isolate M-16 incubated for 18 hrs by two fold serial broth dilution method; assay type: functional
[48] = test system: Staphylococcus aureus; assay: Induction of morphological changes in methicillin-resistant Staphylococcus aureus ATCC 33591 assessed as appearance of cracked cell morphology at 1 ug/ml measured after 6 hrs by SEM analysis; assay type: functional, organism-based; conditions: dose 1.0 µg/ml
[49] = test system: Staphylococcus aureus; assay: Bactericidal activity against methicillin-resistant Staphylococcus aureus ATCC 33591 assessed as log reduction in viable bacterial count at 8 times MIC measured after 10 hrs by time-kill assay; assay type: functional
[50] = test system: Staphylococcus sp.; assay: Antibacterial activity against Staphylococcus sp. 772 assessed as inhibition of bacterial growth incubated for 24 hrs by microdilution method; assay type: functional

COc1ccc2c(c1)c1cc[n+](C)cc1n2CCCCCCCCn1c2ccc(OC)cc2c2cc[n+](C)cc21.[I-].[I-]
MIC [1]: 2 µg/mL

Cc1c2c(cc[n+]1C)c1ccccc1n2CCCCCCCCn1c2ccccc2c2cc[n+](C)c(C)c21.[I-].[I-]
Activity [2]: Non-Toxic
MIC [3]: 0.5 µg/mL
Activity [4]: Dose-Dependent Effect
log(activity) [5]: 4.06
MIC [6]: 0.5 µg/mL
Activity [7]: Dose-Dependent Effect
MIC [8]: 1 µg/mL
log(activity) [9]: 1.27
Activity [10]: Active
hemolysis at 256 ug/ml [11]: 7.71%
fold change (FC) [12]: 1.25
MIC [13]: 1 µg/mL
Stability [14]: Stable
Activity [15]: Dose-Dependent Effect
Activity [16]: Dose-Dependent Effect
log(activity) [17]: <3
Activity [18]: Tde
MIC [19]: 2 µg/mL
Activity [20]: Dose-Dependent Effect
inhibition at 0.5 µg/mL [21]: 100%
MIC [22]: 2 µg/mL
MIC [23]: 1 µg/mL
MIC [24]: 1 µg/mL
fold change (FC) [25]: 28
Activity [26]: Active
viability at 8 ug/ml [27]: 97.8%
MIC [28]: 8 µg/mL
viability at 0.5 ug/ml [29]: 110%
MIC [30]: 1 µg/mL
Activity [31]: Dose-Dependent Effect
Activity [32]: Dose-Dependent Effect
Activity [33]: Dose-Dependent Effect
Activity [34]: Active
Activity [35]: Dose-Dependent Effect
MIC [36]: 2 µg/mL
Activity [37]: Active
MIC [38]: 4 µg/mL
Activity [39]: 87.21%
Activity [40]: Dose-Dependent Effect
MIC [41]: 8 µg/mL
Activity [42]: Active
Activity [43]: Active
Activity [44]: Active
Activity [45]: Dose-Dependent Effect
Activity [46]: Dose-Dependent Effect
MIC [47]: 1 µg/mL
Activity [48]: Active
log(activity) [49]: 3.44

Cc1nccc2c1[nH]c1ccccc12 [HARMAN]
MIC [3]: 128 µg/mL (≈ 702 µM)
MIC [6]: 128 µg/mL (≈ 702 µM)
MIC [50]: 18 µg/mL (≈ 98.8 µM)
MIC [23]: > 128 µg/mL
MIC [36]: 128 µg/mL (≈ 702 µM)
MIC [38]: 128 µg/mL (≈ 702 µM)
MIC [41]: 8 µg/mL (≈ 43.9 µM)
